A word on the EC50: it is the concentration giving half of the maximal effect. Low values mean higher potency in that assay, high ones lower potency in that assay.

These results are taken from BindingDB's records for doi:10.1016/j.bmcl.2016.07.066 (Presidio Pharmaceuticals, 2016).

Structures are written as SMILES.

The nature of assay [1]: Inhibition of HCV genotype 3a replicons NS5A infected in human Huh7 cells by luciferase reporter gene assay.
The nature of assay [2]: Inhibition of HCV genotype 1b replicons NS5A infected in human Huh7 cells by luciferase reporter gene assay. For orientation: In antiviral work, replicon cells carry a viral genome segment that copies itself.
Assay [3] can be described thus: Inhibition of HCV genotype 1a replicons NS5A infected in human Huh7 cells by luciferase reporter gene assay.
Assay [4] is described as follows: Inhibition of HCV genotype 3a replicon NS5A.
Assay [5] in a line: Inhibition of HCV genotype 1a replicon NS5A S2204I mutant infected in human Huh7 cells.
Assay [6] is described as follows: Inhibition of HCV genotype 1b replicon NS5A S2204I mutant infected in human Huh7 cells.

On to `COC(=O)N[C@H](NC(=O)N1CCC[C@H]1c1nc2ccc(-c3ccc4cc(-c5cnc([C@@H]6CCCN6C(=O)[C@@H](NC(=O)OC)C6CCOCC6)[nH]5)ccc4c3)cc2[nH]1)C1CCOCC1`, for which the EC50 in assay [1] was found to be 1.1 nM; in assay [2] it was 0.113 nM; in assay [3], 0.13 nM.
As for `COC(=O)N[C@H](NC(=O)N1CCC[C@H]1c1nc2ccc(-c3ccc4cc(-c5cnc([C@@H]6CCCN6C(=O)[C@H](NC(=O)OC)c6ccccc6)[nH]5)ccc4c3)cc2[nH]1)C(C)C`, the results for the half-maximal effective concentration (EC50) in assay [1], in assay [2] and in assay [3] were 0.03 nM, 0.014 nM and 0.22 nM, respectively.
Turning to `COC(=O)N[C@H](NC(=O)N1CCC[C@H]1c1nc2ccc(-c3ccc4cc(-c5cnc([C@@H]6CCCN6C(=O)[C@@H](NC(=O)OC)[C@@H](C)OC)[nH]5)ccc4c3)cc2[nH]1)C(C)C`, the EC50 turned out to be 1.6 nM in assay [1], 0.022 nM in assay [2] and 0.1 nM in assay [3].
In the case of `COC(=O)N[C@H](NC(=O)N1CCC[C@H]1c1nc2ccc(-c3ccc4cc(-c5cnc([C@@H]6CCCN6C(=O)[C@@H](NC(=O)OC)[C@@H](C)OC)[nH]5)ccc4c3)cc2[nH]1)[C@@H](C)OC`, the EC50 in assay [1] was found to be 1.5 nM; in assay [2], 0.047 nM; in assay [3], 0.13 nM.
For `COC(=O)N[C@H](NC(=O)N1CCC[C@H]1c1nc2ccc(-c3ccc4cc(-c5cnc([C@@H]6CCCN6C(=O)[C@@H](NC(=O)OC)C(C)C)[nH]5)ccc4n3)cc2[nH]1)C(C)C`, the results for the concentration giving a half-maximal response (EC50) in assay [1], in assay [2] and in assay [3] were 1.1 nM, 0.042 nM and 0.26 nM, respectively.
Regarding `COC(=O)N[C@H](NC(=O)N1CCC[C@H]1c1nc2cnc(-c3ccc4cc(-c5cnc([C@@H]6CCCN6C(=O)[C@@H](NC(=O)OC)C(C)C)[nH]5)ccc4c3)cc2[nH]1)C(C)C`, the 50% effective concentration (EC50) in assay [1] worked out at 15 nM; in assay [2] it was 0.052 nM; in assay [3], 1.2 nM.
`COC(=O)N[C@@H](NC(=O)N1CCC[C@H]1c1nc2ccc(-c3ccc4cc(-c5cnc([C@@H]6CCCN6C(=O)[C@@H](NC(=O)OC)C(C)C)[nH]5)ccc4c3)cc2[nH]1)c1ccccc1`: the EC50 was determined as 0.06 nM in assay [1], 0.011 nM in assay [2] and 0.11 nM in assay [3].
For `COC(=O)N[C@H](NC(=O)N1CCC[C@H]1c1nc2ccc(-c3ccc4cc(-c5cnc([C@@H]6CCCN6C(=O)[C@@H](NC(=O)OC)C(C)C)[nH]5)ccc4c3)cc2[nH]1)C1CCOCC1` the same measures were 0.86 nM, 0.023 nM and 0.05 nM.
As to `CC[C@H](C)[C@H](NC(=O)OC)NC(=O)N1CCC[C@H]1c1nc2ccc(-c3ccc4cc(-c5cnc([C@@H]6CCCN6C(=O)[C@@H](NC(=O)OC)[C@@H](C)OC)[nH]5)ccc4c3)cc2[nH]1`, the 50% effective concentration (EC50) was 1 nM in assay [1], 0.015 nM in assay [2] and 0.07 nM in assay [3].
As for `CC[C@H](C)[C@H](NC(=O)OC)NC(=O)N1CCC[C@H]1c1nc2ccc(-c3ccc4cc(-c5cnc([C@@H]6CCCN6C(=O)[C@@H](NC(=O)OC)[C@@H](C)CC)[nH]5)ccc4c3)cc2[nH]1`, the figures for the EC50 in assay [1], in assay [2] and in assay [3] were 2.3 nM, 0.015 nM and 0.11 nM, respectively.
Turning to `COC(=O)N[C@H](NC(=O)N1CCC[C@H]1c1ncc(-c2ccc(-c3ccc(-c4cnc([C@@H]5CCCN5C(=O)[C@@H](NC(=O)OC)C(C)C)[nH]4)cc3)cc2)[nH]1)C(C)C`, the concentration for a half-maximal effect (EC50) in assay [4] worked out at 0.146 nM; in assay [5] it was 0.05 nM; in assay [6], 9 pM; in assay [1], 0.67 nM; in assay [2], 0.073 nM; in assay [3] it was 0.14 nM.
As to `COC(=O)N[C@H](NC(=O)N1CCC[C@H]1c1nc2ccc(-c3ccc4cc(-c5cnc([C@@H]6CCCN6C(=O)[C@@H](NC(=O)OC)C(C)C)[nH]5)ccc4c3)nc2[nH]1)C(C)C`, the concentration giving a half-maximal response (EC50) in assay [1] turned out to be 2.1 nM; in assay [2], 0.025 nM; in assay [3], 0.08 nM.
Regarding `COC(=O)N[C@H](NC(=O)N1CCC[C@H]1c1nc2ccc(-c3ccc4cc(-c5cnc([C@@H]6CCCN6C(=O)[C@@H](NC(=O)OC)C6CCOCC6)[nH]5)ccc4c3)cc2[nH]1)C(C)C`, the EC50 stood at 0.89 nM in assay [1], 0.03 nM in assay [2] and 0.08 nM in assay [3].
For the molecule `COC(=O)N[C@H](NC(=O)N1CCC[C@H]1c1nc2ccc(-c3ccc4cc(-c5cnc([C@@H]6CCCN6C(=O)[C@@H](NC(=O)OC)C6CCCC6)[nH]5)ccc4c3)cc2[nH]1)C1CCCC1`, the 50% effective concentration (EC50) in assay [1] stood at 2.4 nM; in assay [2], 0.003 nM; in assay [3] it was 0.05 nM.
For `CC[C@@H](C)[C@H](NC(=O)OC)NC(=O)N1CCC[C@H]1c1nc2ccc(-c3ccc4cc(-c5cnc([C@@H]6CCCN6C(=O)[C@@H](NC(=O)OC)[C@H](C)CC)[nH]5)ccc4c3)cc2[nH]1`, the EC50 in assay [1] amounted to 9.5 nM; in assay [2] it was 0.009 nM; in assay [3] it was 0.6 nM.
Consider `COC(=O)N[C@H](NC(=O)N1CCC[C@H]1c1nc2ncc(-c3ccc4cc(-c5cnc([C@@H]6CCCN6C(=O)[C@@H](NC(=O)OC)C(C)C)[nH]5)ccc4c3)cc2[nH]1)C(C)C`, for which the results for the EC50 in assay [1], in assay [2] and in assay [3] were 6.6 nM, 0.026 nM and 0.23 nM, respectively.
